Test results published in patent US8741807B2 (priority 2011, dated 2014).
“Also recorded” adds a separate entry of the source.

What was measured:
[1] = test system: leaf blade of rice plant (variety name: Nipponbare); experiment: Cell death spot formation on rice plant leaf blade after dropping spermidine derivative solution; type: in vivo; details: for formation of cell death spots: 1 mM aqueous solution (0.1% Tween 20), 5 μl dropped on rice leaf blade, visually evaluated; for severity of cell death compared with the compounds not introduced with hydroxyl group (Lau or ^1N Lau): same manner as Example 4, rice leaf blade
From the text: (§1) It is known that spermidine treatment of leaf blades forms HR (Hypersensitive Response) like cell death spots in various plant species (Plant Physiol., 132(4), pp. 1973-1981, […]).
The results of examination for severity of cell death are shown in FIG. 12, and those for formation of cell death spots are shown in FIG. 13. The severity of cell death was enhanced by each of the compounds introduced with one hydroxyl group at the terminal carbon atom of the lauroyl group (HydLau: YIS12OH4N, 1NHydLau: YIS12OH1N) compared with the compounds not introduced with hydroxyl group (Lau or ^1N Lau).

[2] = test system: leaf disks cut out from rice plant leaf blades; experiment: Phytoalexin production in rice plant leaf disks immersed in aqueous solution; details: 0.5 mM aqueous solution, 72 hours; not so severe compared with copper chloride
[3] = test system: rice plants at the five-leaf stage; details: 5 mM, no inoculation
[4] = test system: rice blast fungus (Kyu89-246, MAFF101506, race 003.0); type: cell-based; details: for antifungal activity against the rice blast fungus: even at the 10 mM concentration; for formation of inhibition ring against the rice blast fungus: filter paper disks, 1 mM, 5 mM or 10 mM, 28° C., 5 to 6 days, light shielding
PR1 gene = PR1 gene expression enhancing action in Arabidopsis thaliana; type: in vivo; details: after 24 hours and 72 hours
Arabidopsis thaliana = experiment: Cell death in Arabidopsis thaliana by visual inspection; type: in vivo; details: same manner as Example 4, visual inspection, 3 and 7 days
From the text: as §1

^4N-lauroylspermidine was tested, and the “formation of cell death spots” value [1] was “formation of fine cell death spots; also recorded: potent cell death induction effect”, the “browning of leaf disks” value [2] was “browning of leaf disks” and the phytoalexin accumulation [2] was “evident phytoalexin accumulation”.
`NCCCCNCCCN` [Spd, Spermidine, reference compound] was tested, and the “formation of cell death spots” value [1] was “observed only in a part of the treated leaves”.
In the case of `NCCCCN(CCCN)C(=O)CCCCCCCCCCCO` [YIS12OH4N, ^4N-(12-hydroroxylauroyl)-spermidine], the “cell death spots when only the test compounds were sprayed” value [3] is reported as “cell death spots were not observed”, the “antifungal activity against the rice blast fungus” value [4] is reported as “did not have antifungal activity” and the “formation of inhibition ring against the rice blast fungus” value [4] is reported as “Formation of inhibition ring was not observed”. The “severity of cell death compared with the compounds not introduced with hydroxyl group (Lau or ^1N Lau)” value [1] was “enhanced”, the “PR1 gene expression enhancing action relative to 1NHydLau” value (PR1 gene) was “about 3 times” and the “cell death in Arabidopsis thaliana” value (Arabidopsis thaliana) was “induced severe cell death”.
^1N-nonanoylspermidine [^1N Non] was tested, and the “formation of cell death spots” value [1] was “formation of fine cell death spots” and the “cell death in Arabidopsis thaliana” value (Arabidopsis thaliana) was “induced severe cell death”.
In the case of `NCCCCNCCCNC(=O)CCCCCCCCCCCO` [YIS12OH1N, 1-N-(12-hydroroxylauroyl)-spermidine], the “cell death spots when only the test compounds were sprayed” value [3] is reported as “cell death spots were not observed”, the “antifungal activity against the rice blast fungus” value [4] is reported as “did not have antifungal activity” and the “formation of inhibition ring against the rice blast fungus” value [4] is reported as “Formation of inhibition ring was not observed”. For the same compound, the “severity of cell death compared with the compounds not introduced with hydroxyl group (Lau or ^1N Lau)” value [1] was “enhanced” and the “cell death in Arabidopsis thaliana” value (Arabidopsis thaliana) was “induced severe cell death”.
For ^4N-nonanoylspermidine, the “formation of cell death spots” value [1] was “formation of fine cell death spots”.
In the case of ^1N-lauroylspermidine [^1N Lau], the “formation of cell death spots” value [1] is reported as “formation of fine cell death spots”.
